Experimental data: the supplement of paper PMC10307832

Legend:
Test in all cases: relative viability (nuclei count vs DMSO), 5 days (fraction); higher = more cells survive
[1] = compound: CC1=NN=C(O1)C2=NN=C(C=C2)N3CCC(CC3)OC4=C(C=CC(=C4)F)Cl + Cc1cc(Nc2cc(N3CCN(C)CC3)nc(Sc3ccc(NC(=O)C4CC4)cc3)n2)n[nH]1 [Tozasertib] (partner 0.1 µM)
Method in brief: (§1)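 Lung cancer cell lines in 1536-well plates were dosed by pin tool the day after seeding, either with one drug alone or with a fixed anchor-drug dose plus five library-drug doses (not always all listed) in √10 steps. After 5 days, cells were fixed and their nuclei stained in one step (final 0.05% Triton X-100, 1% formaldehyde, 1 ug/ml Hoechst), then counted on 4× images. Relative viability is the nuclei count in treated wells divided by that in vehicle wells. Values are medians of duplicate plates.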

[2] = compound: CC1=NN=C(O1)C2=NN=C(C=C2)N3CCC(CC3)OC4=C(C=CC(=C4)F)Cl + CCNC(=O)c1noc(-c2cc(C(C)C)c(O)cc2O)c1-c1ccc(CN2CCOCC2)cc1 [Luminespib] (partner 0.01 µM)
Method in brief: as §1

Tosedostat + Vorinostat = compound: CC(C)C[C@@H](C(=O)N[C@H](C(=O)OC1CCCC1)c1ccccc1)[C@H](O)C(=O)NO [Tosedostat] + O=C(CCCCCCC(=O)Nc1ccccc1)NO [Vorinostat] (partner 1 µM)
Method in brief: as §1

[3] = compound: CC1=NN=C(O1)C2=NN=C(C=C2)N3CCC(CC3)OC4=C(C=CC(=C4)F)Cl + O=C(c1cc(Cc2n[nH]c(=O)c3ccccc23)ccc1F)N1CCN(C(=O)C2CC2)CC1 [Olaparib] (partner 8 µM)
Method in brief: as §1

## LXF-289
[1]; first compound 0.253 µM
  relative viability: 0.181
[1]; first compound 0.8 µM
  relative viability: 0.141
[1]; first compound 2.53 µM
  relative viability: 0.179
[1]; first compound 8 µM
  relative viability: 0.131
[2]; first compound 0.253 µM
  relative viability: 0.477
[2]; first compound 0.8 µM
  relative viability: 0.378
[2]; first compound 2.53 µM
  relative viability: 0.547
[2]; first compound 8 µM
  relative viability: 0.395
Tosedostat + Vorinostat; first compound 0.02 µM
  relative viability: 0.818
Tosedostat + Vorinostat; first compound 0.06325 µM
  relative viability: 0.716
Tosedostat + Vorinostat; first compound 0.2 µM
  relative viability: 0.822
Tosedostat + Vorinostat; first compound 0.6325 µM
  relative viability: 0.703
Tosedostat + Vorinostat; first compound 2 µM
  relative viability: 0.771
[3]; first compound 0.253 µM
  relative viability: 0.829
[3]; first compound 0.8 µM
  relative viability: 0.632
[3]; first compound 2.53 µM
  relative viability: 0.902
[3]; first compound 8 µM
  relative viability: 0.788

## ABC-1
[1]; first compound 0.253 µM
  relative viability: 0.17
[1]; first compound 0.8 µM
  relative viability: 0.193
[1]; first compound 2.53 µM
  relative viability: 0.178
[1]; first compound 8 µM
  relative viability: 0.177
[2]; first compound 0.253 µM
  relative viability: 0.35
[2]; first compound 0.8 µM
  relative viability: 0.362
[2]; first compound 2.53 µM
  relative viability: 0.207
[2]; first compound 8 µM
  relative viability: 0.262
Tosedostat + Vorinostat; first compound 0.02 µM
  relative viability: 1.33
Tosedostat + Vorinostat; first compound 0.06325 µM
  relative viability: 1.29
Tosedostat + Vorinostat; first compound 0.2 µM
  relative viability: 0.954
Tosedostat + Vorinostat; first compound 0.6325 µM
  relative viability: 0.974
Tosedostat + Vorinostat; first compound 2 µM
  relative viability: 0.693
[3]; first compound 0.253 µM
  relative viability: 0.664
[3]; first compound 0.8 µM
  relative viability: 0.506
[3]; first compound 2.53 µM
  relative viability: 0.488
[3]; first compound 8 µM
  relative viability: 0.638

## NCI-H2170
[1]; first compound 0.253 µM
  relative viability: 0.306
[1]; first compound 0.8 µM
  relative viability: 0.416
[1]; first compound 2.53 µM
  relative viability: 0.392
[1]; first compound 8 µM
  relative viability: 0.331
[2]; first compound 0.253 µM
  relative viability: 0.468
[2]; first compound 0.8 µM
  relative viability: 0.475
[2]; first compound 2.53 µM
  relative viability: 0.353
[2]; first compound 8 µM
  relative viability: 0.311
Tosedostat + Vorinostat; first compound 0.02 µM
  relative viability: 0.923
Tosedostat + Vorinostat; first compound 0.06325 µM
  relative viability: 0.786
Tosedostat + Vorinostat; first compound 0.2 µM
  relative viability: 0.963
Tosedostat + Vorinostat; first compound 0.6325 µM
  relative viability: 0.724
Tosedostat + Vorinostat; first compound 2 µM
  relative viability: 0.777
[3]; first compound 0.253 µM
  relative viability: 0.303
[3]; first compound 0.8 µM
  relative viability: 0.248
[3]; first compound 2.53 µM
  relative viability: 0.342
[3]; first compound 8 µM
  relative viability: 0.256

## NCI-H1437
[1]; first compound 0.253 µM
  relative viability: 0.256
[1]; first compound 0.8 µM
  relative viability: 0.204
[1]; first compound 2.53 µM
  relative viability: 0.228
[1]; first compound 8 µM
  relative viability: 0.175
[2]; first compound 0.253 µM
  relative viability: 0.654
[2]; first compound 0.8 µM
  relative viability: 0.6
[2]; first compound 2.53 µM
  relative viability: 0.598
[2]; first compound 8 µM
  relative viability: 0.546
Tosedostat + Vorinostat; first compound 0.02 µM
  relative viability: 1.04
Tosedostat + Vorinostat; first compound 0.06325 µM
  relative viability: 0.754
Tosedostat + Vorinostat; first compound 0.2 µM
  relative viability: 0.976
Tosedostat + Vorinostat; first compound 0.6325 µM
  relative viability: 1.12
Tosedostat + Vorinostat; first compound 2 µM
  relative viability: 0.958
[3]; first compound 0.253 µM
  relative viability: 0.416
[3]; first compound 0.8 µM
  relative viability: 0.516
[3]; first compound 2.53 µM
  relative viability: 0.449
[3]; first compound 8 µM
  relative viability: 0.403

## EBC-1
[3]; first compound 0.253 µM
  relative viability: 0.485
[3]; first compound 0.8 µM
  relative viability: 0.538
[3]; first compound 2.53 µM
  relative viability: 0.509
[3]; first compound 8 µM
  relative viability: 0.438

## NCI-H441
[1]; first compound 0.253 µM
  relative viability: 0.457
[1]; first compound 0.8 µM
  relative viability: 0.388
[1]; first compound 2.53 µM
  relative viability: 0.423
[1]; first compound 8 µM
  relative viability: 0.419
[2]; first compound 0.253 µM
  relative viability: 0.295
[2]; first compound 0.8 µM
  relative viability: 0.32
[2]; first compound 2.53 µM
  relative viability: 0.245
[2]; first compound 8 µM
  relative viability: 0.282
Tosedostat + Vorinostat; first compound 0.02 µM
  relative viability: 0.809
Tosedostat + Vorinostat; first compound 0.06325 µM
  relative viability: 0.654
Tosedostat + Vorinostat; first compound 0.2 µM
  relative viability: 0.759
Tosedostat + Vorinostat; first compound 0.6325 µM
  relative viability: 0.55
Tosedostat + Vorinostat; first compound 2 µM
  relative viability: 0.547
[3]; first compound 0.253 µM
  relative viability: 0.355
[3]; first compound 0.8 µM
  relative viability: 0.353
[3]; first compound 2.53 µM
  relative viability: 0.349
[3]; first compound 8 µM
  relative viability: 0.383

## NCI-H2087
[1]; first compound 0.253 µM
  relative viability: 0.194
[1]; first compound 0.8 µM
  relative viability: 0.157
[1]; first compound 2.53 µM
  relative viability: 0.156
[1]; first compound 8 µM
  relative viability: 0.114
[2]; first compound 0.253 µM
  relative viability: 0.17
[2]; first compound 0.8 µM
  relative viability: 0.144
[2]; first compound 2.53 µM
  relative viability: 0.151
[2]; first compound 8 µM
  relative viability: 0.164
Tosedostat + Vorinostat; first compound 0.02 µM
  relative viability: 0.718
Tosedostat + Vorinostat; first compound 0.06325 µM
  relative viability: 0.667
Tosedostat + Vorinostat; first compound 0.2 µM
  relative viability: 0.66
Tosedostat + Vorinostat; first compound 0.6325 µM
  relative viability: 0.735
Tosedostat + Vorinostat; first compound 2 µM
  relative viability: 0.667
[3]; first compound 0.253 µM
  relative viability: 0.502
[3]; first compound 0.8 µM
  relative viability: 0.34
[3]; first compound 2.53 µM
  relative viability: 0.485
[3]; first compound 8 µM
  relative viability: 0.425

## NCI-H647
[1]; first compound 0.253 µM
  relative viability: 0.166
[1]; first compound 0.8 µM
  relative viability: 0.105
[1]; first compound 2.53 µM
  relative viability: 0.126
[1]; first compound 8 µM
  relative viability: 0.0876
[2]; first compound 0.253 µM
  relative viability: 0.171
[2]; first compound 0.8 µM
  relative viability: 0.128
[2]; first compound 2.53 µM
  relative viability: 0.16
[2]; first compound 8 µM
  relative viability: 0.263
Tosedostat + Vorinostat; first compound 0.02 µM
  relative viability: 0.842
Tosedostat + Vorinostat; first compound 0.06325 µM
  relative viability: 0.502
Tosedostat + Vorinostat; first compound 0.2 µM
  relative viability: 0.566
Tosedostat + Vorinostat; first compound 0.6325 µM
  relative viability: 0.503
Tosedostat + Vorinostat; first compound 2 µM
  relative viability: 0.686
[3]; first compound 0.253 µM
  relative viability: 0.232
[3]; first compound 0.8 µM
  relative viability: 0.157
[3]; first compound 2.53 µM
  relative viability: 0.173
[3]; first compound 8 µM
  relative viability: 0.0657

## SW 1573
[1]; first compound 0.253 µM
  relative viability: 0.131
[1]; first compound 0.8 µM
  relative viability: 0.13
[1]; first compound 2.53 µM
  relative viability: 0.181
[1]; first compound 8 µM
  relative viability: 0.246
[2]; first compound 0.253 µM
  relative viability: 0.184
[2]; first compound 0.8 µM
  relative viability: 0.204
[2]; first compound 2.53 µM
  relative viability: 0.264
[2]; first compound 8 µM
  relative viability: 0.2
Tosedostat + Vorinostat; first compound 0.02 µM
  relative viability: 0.984
Tosedostat + Vorinostat; first compound 0.06325 µM
  relative viability: 0.718
Tosedostat + Vorinostat; first compound 0.2 µM
  relative viability: 0.81
Tosedostat + Vorinostat; first compound 0.6325 µM
  relative viability: 0.671
Tosedostat + Vorinostat; first compound 2 µM
  relative viability: 0.614
[3]; first compound 0.253 µM
  relative viability: 0.524
[3]; first compound 0.8 µM
  relative viability: 0.519
[3]; first compound 2.53 µM
  relative viability: 0.426
[3]; first compound 8 µM
  relative viability: 0.412

## HARA
[1]; first compound 0.253 µM
  relative viability: 0.0993
[1]; first compound 0.8 µM
  relative viability: 0.0831
[1]; first compound 2.53 µM
  relative viability: 0.0894
[1]; first compound 8 µM
  relative viability: 0.0804
[2]; first compound 0.253 µM
  relative viability: 0.234
[2]; first compound 0.8 µM
  relative viability: 0.204
[2]; first compound 2.53 µM
  relative viability: 0.202
[2]; first compound 8 µM
  relative viability: 0.184
Tosedostat + Vorinostat; first compound 0.02 µM
  relative viability: 1.35
Tosedostat + Vorinostat; first compound 0.06325 µM
  relative viability: 0.531
Tosedostat + Vorinostat; first compound 0.2 µM
  relative viability: 0.544
Tosedostat + Vorinostat; first compound 0.6325 µM
  relative viability: 0.377
Tosedostat + Vorinostat; first compound 2 µM
  relative viability: 0.295
[3]; first compound 0.253 µM
  relative viability: 0.331
[3]; first compound 0.8 µM
  relative viability: 0.244
[3]; first compound 2.53 µM
  relative viability: 0.317
[3]; first compound 8 µM
  relative viability: 0.256
